pIC50: −log10 of the molar value. The source made the active and inactive calls. The calls are words filed in the database; no cut-off is given here.
Experiments:
[1] = system: THP-1; test: (§1) Selectivity index, ratio of CC50 for human THP1 cells to IC50 for Leishmania donovani amastigotes infected in human THP1 cells; format: functional
[2] = system: THP-1; test: Induction of nitric oxide production in human THP1 cells infected with Leishmania donovani amastigotes at 32.3 uM incubated for 48 hrs by Griess assay relative to untreated control; format: functional, cell-based
[3] = system: Leishmania donovani; test: Antileishmanial activity against Leishmania donovani; format: functional, organism-based
[4] = system: Leishmania donovani; test: Antileishmanial activity against Leishmania donovani AG83 promastigotes assessed as parasite growth inhibition incubated for 92 hrs by MTT assay; format: functional, organism-based; settings: AG83, 92 h
[5] = Cytotoxicity against human THP1 cells incubated for 92 hrs by MTT assay; format: cell-based; settings: THP-1 cells
[6] = as §1; format: functional, THP-1
[7] = system: THP-1; test: Induction of nitric oxide production in human THP1 cells infected with Leishmania donovani amastigotes at 0.93 uM incubated for 48 hrs by Griess assay relative to untreated control; format: functional
[8] = system: THP-1; test: Induction of iNOS2 mRNA expression in human THP1 cells infected with Leishmania donovani amastigotes at 0.93 uM incubated for 5 hrs by RT-PCR method; format: functional, cell-based
[9] = system: Leishmania donovani; test: Antileishmanial activity against Leishmania donovani amastigotes infected in human THP1 cells assessed as parasite growth inhibition at 100 uM incubated for 48 hrs by Giemsa staining based optical microscopy; format: functional; settings: THP-1, 48 h, read-out: GI
[10] = system: Leishmania donovani; test: microbe, parasite or virus in culture; settings: THP-1, 48 h
Description: Antileishmanial activity against Leishmania donovani amastigotes infected in human THP1 cells at 10 to 210 uM incubated for 48 hrs by Giemsa staining based optical microscopy

In the case of sodium antimonygluconate, the Ratio CC50/IC50 [1] was 10.1 and the Activity [2] was “inactive”.
In the case of COc1cc(-c2oc3cc(O)cc(O)c3c(=O)c2O)cc(OC)c1OC, the IC50 [3] was over 30 µg/mL.
For COc1cc(O)c2c(=O)c(OC)c(-c3cc(O)c(O)c(OC)c3)oc2c1, the pIC50 [4] was 5.62, the IC90 [4] was 28.1 µM and the CC50 at 92 h [5] was 124 µM. For the same compound, the “Ratio CC50/IC50” value [6] was 133.01, the “fold change (FC)” value [7] was 8.4 and the Activity [8] was “Active”. The inhibition of growth at 100 µM [9] was 100% and the pIC50 [10] was 6.03.
